Assay results as given in patent US12486301B2, “8-fluoro-4-alkylumbelliferyl α-D-glucopyranoside, biological sterilization indicator including the same and its use in a method of determining efficacy of a sterilization process” (Solventum Intellectual Properties Company, priority 2019, dated 2025).

Key:
[1] = tested on: Geobacillus stearothermophilus spores (ATCC 7953); assay: Fluorescence from enzyme substrates incubated with Geobacillus stearothermophilus spores in culture media; format: cell-based; details: substrate 0.1 mg/mL, 60° C.
[2] = tested on: Geobacillus stearothermophilus spores (ATCC 7953); assay: as above; format: cell-based; details: 5×10^3 spores, substrate 0.1 mg/mL, 60° C.
Protocol: Culture media was prepared by dissolving 5 g/L peptone C (BD 211921) and 12 g/L phytone peptone (BD BBL 211906) in deionized water. The pH was adjusted with 1 N NaOH or 0.1 N HCl, the media brought to volume, and then filter sterilized with a 0.22 micron PES filter. Stock solutions ([…]) of 8′-fluoro-4′-methylumbelliferyl-α-D-glucopyranoside, 6′-fluoro-4′-methylumbelliferyl-α-D-glucopyranoside, and 4-methylumbelliferyl-α-D-glucopyranoside were prepared in DMSO. The aforementioned substrates were added to culture media at a final concentration of 0.1 mg/ml and media were then 0.22 μm filter sterilized.
Culture media (pH 6) containing 8′-fluoro-4′-methylumbelliferyl-[…]-D-glucopyranoside (0.1 mg/mL) was added to two wells (100 microliters per well) of a black 96-well microtiter plate with (NUNC #165301, Thermo Fisher Scientific). A 5 microliter aqueous suspension containing 5×10^3 Geobacillus stearothermophilus spores (ATCC 7953) was added to each well of the microtiter plate. Next, the contents of each well were mixed using a multiple aspiration/delivery sequence with the pipet. […] The top of the plate was covered with an optically clear sealing film (product #4311971, Applied Biosystems Corporation, Foster City, California). The plate was warmed at 60° C. and shaken in a linear direction. Fluorescence readings (360 nm excitation/450 nm emission at 50% gain) were taken from the top of the plate. A reading was taken at an initial time point of 10 seconds and then at +1 minute intervals thereafter. A Synergy Neo2 fluorescence plate reader (BioTek Company, Winooski, Vermont) was used. In Table 1, the mean fluorescence values detected (RFU) at times of 10 seconds, +5 minutes, +10 minutes, and +30 minutes are reported. The mean fluorescence values detected for the control wells were 614 RFU at 10 seconds; 547 RFU at +5 minutes; 504 RFU at +10 minutes, and 438 RFU at +30 minutes.
Culture media (pH 7) containing 8′-fluoro-4′-methylumbelliferyl-[…]-D-glucopyranoside (0.1 mg/mL) was added to two wells (100 microliters per well) of a black 96-well microtiter plate with (NUNC #165301, Thermo Fisher Scientific). A 5 microliter aqueous suspension containing 5×10^3 Geobacillus stearothermophilus spores (ATCC 7953) was added to each well of the microtiter plate. Next, the contents of each well were mixed using a multiple aspiration/delivery sequence with the pipet. […] The top of the plate was covered with an optically clear sealing film (product #4311971, Applied Biosystems Corporation). The plate was warmed at 60° C. and shaken in a linear direction. Fluorescence readings (360 nm excitation/450 nm emission at 50% gain) were taken from the top of the plate. A reading was taken at an initial time point of 10 seconds and then at +1 minute intervals thereafter. A Synergy Neo2 fluorescence plate reader (BioTek Company) was used. In Table 2, the mean fluorescence values detected (RFU) at times of 10 seconds, +5 minutes, +10 minutes, and +30 minutes are reported. The mean fluorescence values detected for the control wells were 601 RFU at 10 seconds; 533 RFU at +5 minutes; 495 RFU at +10 minutes, and 430 RFU at +30 minutes.
Culture media (pH 8) containing 8′-fluoro-4′-methylumbelliferyl-[…]-D-glucopyranoside (0.1 mg/mL) was added to two wells (100 microliters per well) of a black 96-well microtiter plate with (NUNC #165301, Thermo Fisher Scientific). A 5 microliter aqueous suspension containing 5×10^3 Geobacillus stearothermophilus spores (ATCC 7953) was added to each well of the microtiter plate. Next, the contents of each well were mixed using a multiple aspiration/delivery sequence with the pipet. […] The top of the plate was covered with an optically clear sealing film (product #4311971, Applied Biosystems Corporation). The plate was warmed at 60° C. and shaken in a linear direction. Fluorescence readings (360 nm excitation/450 nm emission at 50% gain) were taken from the top of the plate. […]

[3] = pH 6 culture media, 5×10^3 spores
[4] = pH 6 culture media, 5×10^6 spores
[5] = pH 7 culture media, 5×10^6 spores
[6] = pH 8 culture media, 5×10^3 spores
[7] = pH 8 culture media, 5×10^6 spores
[8] = pH 9 culture media, 5×10^3 spores
[9] = pH 9 culture media, 5×10^6 spores

Cc1cc(=O)oc2cc(O[C@H]3O[C@H](CO)[C@@H](O)[C@H](O)[C@H]3O)ccc12 [MUG, 4′-methylumbelliferyl-α-D-glucopyranoside]
MEASURED FLUORESCENCE, RFU +5 min [1, 3]: 585 RFU | MEASURED FLUORESCENCE, RFU +30 min [1, 3]: 1210 RFU | MEASURED FLUORESCENCE, RFU 10 sec [1, 4]: 4600 RFU | MEASURED FLUORESCENCE, RFU +5 min [1, 4]: 9209 RFU | MEASURED FLUORESCENCE, RFU +10 min [1, 4]: 10250 RFU | MEASURED FLUORESCENCE, RFU +30 min [1, 4]: 9996 RFU | MEASURED FLUORESCENCE, RFU 10 sec ([1]; pH 7 culture media, 5×10^3 spores): 676 RFU | MEASURED FLUORESCENCE, RFU 10 sec [1, 5]: 10780 RFU | MEASURED FLUORESCENCE, RFU +5 min [1, 5]: 22443 RFU | MEASURED FLUORESCENCE, RFU +10 min [1, 5]: 26791 RFU | MEASURED FLUORESCENCE, RFU +30 min [1, 5]: 24911 RFU | MEASURED FLUORESCENCE, RFU 10 sec [1, 6]: 704 RFU | MEASURED FLUORESCENCE, RFU +5 min [1, 6]: 661 RFU | MEASURED FLUORESCENCE, RFU +10 min [1, 6]: 700 RFU | MEASURED FLUORESCENCE, RFU 10 sec [1, 7]: 12320 RFU | MEASURED FLUORESCENCE, RFU +5 min [1, 7]: 32993 RFU | MEASURED FLUORESCENCE, RFU +10 min [1, 7]: 51516 RFU | MEASURED FLUORESCENCE, RFU +30 min [1, 7]: 53517 RFU | MEASURED FLUORESCENCE, RFU 10 sec [1, 8]: 698 RFU | MEASURED FLUORESCENCE, RFU +5 min [1, 8]: 634 RFU | MEASURED FLUORESCENCE, RFU +10 min [1, 8]: 621 RFU | MEASURED FLUORESCENCE, RFU +30 min [1, 8]: 1153 RFU | MEASURED FLUORESCENCE, RFU 10 sec [1, 9]: 5777 RFU | MEASURED FLUORESCENCE, RFU +5 min [1, 9]: 19462 RFU | MEASURED FLUORESCENCE, RFU +10 min [1, 9]: 43381 RFU | MEASURED FLUORESCENCE, RFU +30 min [1, 9]: 64660 RFU | MEASURED FLUORESCENCE, RFU 10 sec ([2]; pH 6 culture media, 10 sec, 360 nm excitation/450 nm emission): 646 RFU | MEASURED FLUORESCENCE, RFU +10 min ([2]; pH 6 culture media): 588 RFU | MEASURED FLUORESCENCE, RFU +5 min ([2]; pH 7 culture media, +5 min): 634 RFU | MEASURED FLUORESCENCE, RFU +10 min ([2]; pH 7 culture media): 655 RFU | MEASURED FLUORESCENCE, RFU +30 min ([2]; pH 7 culture media): 1219 RFU | MEASURED FLUORESCENCE, RFU +30 min ([2]; pH 8 culture media): 1725 RFU
